Test results published in patent publication US20230233484A1, “USE OF VITAMIN K IN PREVENTING OR COU[…]-19 DISEASE AND DIAGNOSTIC TEST TO ESTIMATE THE RISK OF […] DISEASE OR MORTALITY BY COVID-19” (EMPHYSEMA SOLUTIONS BV, priority 2020, published 2023).

How the values were obtained:
dp-ucMGP = details: vitamin K supplementation; cited from earlier work
Covid-19 [1] = assay: Cohort of hospitalized COVID-19 patients treated with vitamin K, compared with previous COVID-19 cohorts; assay type: in vivo; details: hospitalized COVID-19 cohort treated with vitamin K vs previous COVID-19 cohorts from the same hospital
Source text: (§1) Procoagulant prothrombin activation by vitamin K remained preserved in the majority of Covid-19 patients. Impaired MGP activation was linked to accelerated elastic fiber degradation and premorbid vascular calcifications. About fifty percent of total anticoagulant protein S is activated extra-hepatically by vitamin K, and this activation is likely also impaired during Covid-19. Given the fact that procoagulant activity remains intact, this is compatible with the increased thrombogenicity that is frequently observed in severe Covid-19. Based on our findings we expect that increasing MGP and protein S activity by vitamin K administration will considerably improve Covid-19 outcomes. An intervention trial to confirm this hypothesis is currently ongoing.

Covid-19 [2] = assay: Ongoing intervention trial of vitamin K administration in Covid-19 patients; assay type: in vivo; details: twelve Covid-19 patients have received treatment
Source text: as §1

Chain of dp-ucMGP (P08493 20-96): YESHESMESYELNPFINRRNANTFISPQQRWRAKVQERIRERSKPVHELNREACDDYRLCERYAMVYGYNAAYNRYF

In the case of vitamin K, the “effect on dp-ucMGP levels” value (dp-ucMGP) is given as “reducing effect”, the ICU admission rate (Covid-19 [1]) is given as “significantly lower” and the mortality (Covid-19 [1]) is given as “significantly lower”. The safety issues (Covid-19 [2]) was “no unexpected safety issues”.
